# In patent US11186577B2, “Vasopressin receptor antagonists and products and methods related thereto” (BlackThorn Therapeutics, Inc., priority 2017, dated 2021):
# Assays:
# [1] = target: human Arginine Vasopressin Receptor 1a (AVPR1a) (Homo sapiens (Human), UniProt P37288); test: Vasopressin V1A receptor antagonist assay (AVP-evoked calcium, FLIPR, CHO-AVPR1a cells); format: cell-based; conditions: read-out: V1a IC50
# Summary of the method: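 CHO cells expressing human AVPR1a, Calcium-6 dye loaded 60-90 min, preincubated with compound 15 min at 37° C., then challenged with AVP at its daily-determined EC80. FLIPR fluorescence; 10-point 1:3 series from 3 μM, duplicates.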
# [2] = target: human Arginine Vasopressin Receptor V2 (AVPR2) (Homo sapiens (Human), UniProt P30518); test: Vasopressin V2 receptor antagonist assay (cAMP TR-FRET, 1321N1 cells); format: cell-based
# Protocol: The purpose of the assay was to determine the inhibitory effect of synthesized compounds on the Vasopressin receptor 2. […] Arginine Vasopressin (AVP) evokes an increase in intracellular cAMP in these cells which is measured in a TR-FRET assay using a Europium cAMP tracer and ULight labelled antibody reagents contained in a LANCE Ultra cAMP kit (Perkin Elmer #TRF0263). […] Test compounds were assessed for their ability to affect the magnitude of the response to AVP, with antagonists showing a concentration-dependent decrease in the AVP-mediated reduction in TR-FRET signal.
# cAMPZen V2 assay ready cells were thawed at 37° C. and resuspended directly from frozen in 9 ml growth medium consisting of DMEM supplemented with 10% v/v fetal bovine serum, 1× non-essential amino acids, and 1 mM sodium pyruvate. Cells were spun at 1000 rpm for 3 minutes and the supernatant was carefully removed and discarded. The pellet was resuspended in 5 ml stimulation buffer and the cell density determined using the Vi-Cell automated cell counter. The cell suspension was diluted to a 0.2×10^6/ml suspension ready for plating. […] Stimulation buffer consisted of HBSS (+Ca/+Mg) supplemented with 5 mM HEPES, 0.1% BSA stabiliser and 0.5 mM IBMX.
# At the start of each assay day the potency of AVP was assessed and an EC80 concentration determined for subsequent compound profiling. Assays were performed by first an addition of 2.5 μl of control or test compound at 4× final concentration in stimulation buffer followed by 2.5 μl of AVP at 4× final concentration in stimulation buffer. After a 1 hour reaction, detection reagents were added by first an addition of 5 μl EU-cAMP tracer, followed by 5 μl ULight-anti-cAMP both diluted as per the manufacturer's instructions. […] For compound profiling, test compounds were dispensed by the Labcyte Echo (10-point curve, 1:3 dilutions) in a target 0.1 μl volume then diluted 750-fold in stimulation buffer containing 3% DMSO prior to addition to the cells. At the end of the incubation period, 2.5 μl of AVP in stimulation buffer was added at the previously determined EC80 concentration.
# [3] = target: human Oxytocin Receptor (hOTR) (Homo sapiens (Human), UniProt P30559); test: Oxytocin receptor antagonist assay (oxytocin-evoked calcium, FLIPR, CHEM-1-hOTR cells); format: cell-based; conditions: read-out: OT IC50
# Summary of the method: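 Antagonist mode in CHEM-1-hOTR cells loaded with Calcium-6 dye; compounds (10-point, 1:3 series) preincubated 15 min at 37 °C, then oxytocin added at daily-determined EC80 in HBSS/20 mM HEPES with 0.1% BSA. Fluorescence (ex 470-495, em 515-575 nm) followed 3 min on FLIPR^TETRA; concentration-dependent reduction of oxytocin response measured.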
# MDR1 (P-gp) = test: in vitro; conditions: dog, MDCK-MDR1
# Sequence of human Arginine Vasopressin Receptor V2 (AVPR2) (P30518 whole entry): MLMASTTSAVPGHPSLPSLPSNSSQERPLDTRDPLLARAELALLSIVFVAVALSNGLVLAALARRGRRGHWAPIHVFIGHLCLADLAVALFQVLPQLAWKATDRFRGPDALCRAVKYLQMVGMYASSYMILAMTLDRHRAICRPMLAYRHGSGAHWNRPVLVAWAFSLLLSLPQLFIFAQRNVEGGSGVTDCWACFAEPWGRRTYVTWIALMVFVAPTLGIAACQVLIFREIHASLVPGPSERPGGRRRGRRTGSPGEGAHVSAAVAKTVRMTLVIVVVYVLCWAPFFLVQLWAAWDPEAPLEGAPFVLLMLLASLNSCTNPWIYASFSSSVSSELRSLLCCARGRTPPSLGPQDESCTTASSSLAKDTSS
# Sequence of human Arginine Vasopressin Receptor 1a (AVPR1a) (P37288 whole entry): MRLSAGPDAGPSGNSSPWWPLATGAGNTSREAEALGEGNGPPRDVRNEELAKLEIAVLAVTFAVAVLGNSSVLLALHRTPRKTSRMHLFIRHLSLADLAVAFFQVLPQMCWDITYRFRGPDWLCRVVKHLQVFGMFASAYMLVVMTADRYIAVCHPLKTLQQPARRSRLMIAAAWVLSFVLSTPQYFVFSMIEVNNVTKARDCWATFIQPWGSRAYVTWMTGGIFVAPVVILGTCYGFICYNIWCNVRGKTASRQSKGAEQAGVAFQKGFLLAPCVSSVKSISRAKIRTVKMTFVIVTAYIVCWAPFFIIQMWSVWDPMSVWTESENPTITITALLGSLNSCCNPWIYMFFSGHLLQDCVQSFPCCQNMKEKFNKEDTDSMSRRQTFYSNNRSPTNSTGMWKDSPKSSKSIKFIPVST
# Sequence of human Oxytocin Receptor (hOTR) (P30559 whole entry): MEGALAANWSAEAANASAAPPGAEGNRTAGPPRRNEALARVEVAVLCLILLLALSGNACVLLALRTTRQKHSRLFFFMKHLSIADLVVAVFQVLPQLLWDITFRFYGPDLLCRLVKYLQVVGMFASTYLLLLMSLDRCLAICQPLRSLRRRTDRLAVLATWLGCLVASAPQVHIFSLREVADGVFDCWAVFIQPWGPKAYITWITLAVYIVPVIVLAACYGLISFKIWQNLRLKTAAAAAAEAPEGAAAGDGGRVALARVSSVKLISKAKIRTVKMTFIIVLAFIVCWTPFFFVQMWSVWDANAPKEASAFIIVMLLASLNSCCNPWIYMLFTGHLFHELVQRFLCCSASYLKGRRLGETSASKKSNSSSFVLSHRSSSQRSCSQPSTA
Compound,IC50 [1],IC50 [2],IC50 [3],Papp A→B at 2 h (MDR1 (P-gp))
Fc1ccc(N2CC3(CC(c4nnc5n4-c4ccc(Cl)cc4CN(C4CC4)C5)C3)C2)nc1 [compound 223],< 100 nM,< 100 nM,> 1000 nM,> 20 ×10⁻⁶ cm/s
"CC1(N2Cc3cc(Cl)ccc3-n3c(nnc3C3CC4(C3)CN(c3ccc(F)cn3)C4)C2)CC1 [Compound No. 255, 8-chloro-1-(2-(5-fluoropyridin-2-yl)-2-azaspiro[3.3]heptan-6-yl)-5-(1-methylcyclopropyl)-5,6-dihydro-4H-benzo[f][1,2,4]triazolo[4,3-a][1,4]diazepine]",< 100 nM,100 to 500 nM,> 1000 nM,> 20 ×10⁻⁶ cm/s
